PMC6934184, “Selective DNA-PKcs inhibition extends the therapeutic index of localized radiotherapy and chemotherapy” (The Journal of Clinical Investigation, 2019)

Target: T1, TBK1 (Homo sapiens, UniProt Q9UHD2)
T1 construct: purchased Thermo Fisher Scientific (Life Technologies) SelectScreen
Experiment: SelectScreen Z'LYTE
Type: biochemical
Summary of the method: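 Percent values come from Thermo SelectScreen profiling of NU5455, combining activity and binding assays. CSF1R was run in Z'LYTE format at Km app ATP, and CAMK1 in Adapta format with ATP listed at 10.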

T1 sequence (Q9UHD2 whole entry): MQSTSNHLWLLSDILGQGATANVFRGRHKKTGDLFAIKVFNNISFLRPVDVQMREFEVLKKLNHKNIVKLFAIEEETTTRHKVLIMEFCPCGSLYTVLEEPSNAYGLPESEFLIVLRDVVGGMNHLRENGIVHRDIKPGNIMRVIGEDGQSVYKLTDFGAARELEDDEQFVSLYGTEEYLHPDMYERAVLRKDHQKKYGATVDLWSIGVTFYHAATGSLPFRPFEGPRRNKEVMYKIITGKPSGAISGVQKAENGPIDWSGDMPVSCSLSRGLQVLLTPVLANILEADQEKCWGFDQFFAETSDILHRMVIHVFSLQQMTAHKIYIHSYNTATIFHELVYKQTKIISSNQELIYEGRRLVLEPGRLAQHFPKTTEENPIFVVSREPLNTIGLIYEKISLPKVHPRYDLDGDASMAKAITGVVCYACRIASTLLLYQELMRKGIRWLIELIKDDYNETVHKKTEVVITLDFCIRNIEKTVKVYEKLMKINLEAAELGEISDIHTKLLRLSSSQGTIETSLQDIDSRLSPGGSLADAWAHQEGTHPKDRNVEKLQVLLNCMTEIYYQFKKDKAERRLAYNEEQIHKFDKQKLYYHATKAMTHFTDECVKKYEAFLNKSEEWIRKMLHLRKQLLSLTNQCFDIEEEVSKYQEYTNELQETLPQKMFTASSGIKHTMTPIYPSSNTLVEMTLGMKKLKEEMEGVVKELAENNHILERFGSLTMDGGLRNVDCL

CN(C(=O)CN1CCOCC1)c1ccc2sc3c(-c4cccc5c(=O)cc(N6CC7CCC(C6)O7)oc45)cccc3c2c1 [NU5455]
inhibition at 1 µM: 2%
